According to US8168199B2, “Dipeptidyl peptidase IV inhibitors for the treatment of schizophrenia and depression” (priority 2000, dated 2012):

Legend:
rats = details: administered into the dorsal periaqueductal gray matter; cited from earlier work
[1] = i.c.v. injection; cited from earlier work
[2] = test system: Male WistarF/Han (WF) rats; assay: Social interaction (SI) test with Y1R antagonist BIBP3226, P32/98 and NPY (Example 4); type: in vivo, rat
Procedure: (§1) Animals. Male WistarF/Han (WF) rats (Central Animal Laboratory, Hannover Medical School, Hannover, Germany, weighing 330±31 g±SD, were housed in a sound-proof, temperature controlled (24.0±0.5° C.) room under specific pathogen free conditions with a 12/12 h dark/light cycle (lights on at 07.00 with illumination level of 80 Lux). Food (Altromin lab chow pellets) and tap water were available ad libitum. Under ketamine/xylasine (100/5 mg/kg, i.p.) anesthesia, the rats were fixed in a Kopf stereotaxic frame and implanted with cannulae (Plastic One, Inc., Roanoke, Va., USA) above the lateral ventricle. All research and animal care procedures were approved by the Lower Saxony district government (Hannover, Germany) and followed principles described in the European Community's Council Directive of 24 Nov. 1986 (86/609/EEC).
(§2) Surgery and i.c.v. application. […]
(§3) Animals were randomly divided into eight experimental groups (n=6-8/group), which completed one SI test of anxiety: (1) aCSF+aCSF+aCSF; (2) BIBP+aCSF+aCSF; (3) aCSF+P32/98+aCSF; (4) BIBP+P32/98+aCSF; (5) aCSF+aCSF+NPY; (6) BIBP+aCSF+NPY; (7) aCSF+[…]+NPY; (8) BIBP+P32/98+NPY. […] The time spent in active social interaction (SI-time), 1 h, and 12 h food-intake were measured. […]
Social interaction (SI) test. […] Behavior was monitored using a video camera placed above the field inside the testing/isolation box. The SI behavior of both rats was recorded on-line from a monitor placed outside on top of the box. The following parameters were scored by an observer (HPN) unaware of the substrain of rats: duration of time spent in sniffing, following, crawling under and over other rats, but not passive body contact (resting, sleeping). […]
(§4) Statistical analysis. Data obtained from the measures SI time and 1 h food intake were analyzed by one-way (factor: “treatment”) ANOVA. […]

[3] = test system: Male WistarF/Han (WF) rats; assay: 1 h food-intake with Y1R antagonist BIBP3226, P32/98 and NPY (Example 4); type: in vivo, rat; details: i.c.v. BIBP3226 100 nmol
Procedure: as §1, §2, §3, §4

dipeptidyl peptidase IV = target: T1, dipeptidyl peptidase IV (Homo sapiens, UniProt P27487); details: human serum incubated with neuropeptide Y or peptide YY; cited from earlier work
T1 construct: from tissue; host or cells: human serum
T1 sequence (P27487 39-766 limits assumed): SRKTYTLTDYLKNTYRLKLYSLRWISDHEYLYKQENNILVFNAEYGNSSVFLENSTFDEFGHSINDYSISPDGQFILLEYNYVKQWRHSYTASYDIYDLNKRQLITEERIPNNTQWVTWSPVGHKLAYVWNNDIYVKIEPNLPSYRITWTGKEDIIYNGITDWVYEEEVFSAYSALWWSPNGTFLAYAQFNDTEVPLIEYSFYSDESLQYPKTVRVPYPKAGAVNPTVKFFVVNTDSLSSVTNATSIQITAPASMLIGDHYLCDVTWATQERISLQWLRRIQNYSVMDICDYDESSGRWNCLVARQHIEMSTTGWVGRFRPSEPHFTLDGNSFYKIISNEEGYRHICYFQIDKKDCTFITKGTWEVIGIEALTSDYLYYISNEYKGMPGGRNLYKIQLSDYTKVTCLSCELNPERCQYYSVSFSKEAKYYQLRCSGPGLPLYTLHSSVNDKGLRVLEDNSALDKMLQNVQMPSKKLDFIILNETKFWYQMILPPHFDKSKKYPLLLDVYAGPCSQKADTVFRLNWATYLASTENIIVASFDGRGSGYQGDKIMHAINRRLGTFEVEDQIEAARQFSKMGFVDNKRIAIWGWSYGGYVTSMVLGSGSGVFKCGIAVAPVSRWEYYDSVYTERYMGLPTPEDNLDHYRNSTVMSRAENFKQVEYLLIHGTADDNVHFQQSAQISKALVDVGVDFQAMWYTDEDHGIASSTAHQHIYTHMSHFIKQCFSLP

[4] = test system: Male WistarF/Han (WF) rats; assay: 1 h and 12 h food-intake after i.c.v. P32/98 and NPY (Example 3); type: in vivo, rat; details: i.c.v. P32/98 5 pmol-500 nmol, NPY 50 pmol-1.6 nmol; dark cycle
Procedure: as §1, with “330-370 g,” for “330±31 g±SD,”
Surgery and i.c.v. application. For surgery, rats were anesthetized and prepared with i.c.v. cannulae (coordinates: A: −0.7 mm caudal, L: 1.4 mm lateral to bregma; and V3.2 mm ventral to the skull surface; tooth bar +3.0 above ear bars) using standard stereotaxic procedures as described in detail elsewhere (von Hörsten et al., 1998a, b, c). After a 7-day recovery period, successful ventricle cannulation was confirmed by an angiotensin drinking response (von Hörsten et al., 1998a). Rats showing a positive drinking response (n=59) were then habituated to experimental handling by daily sham injections for seven days.
Animals were randomly divided into two sets of four experimental groups (n=5-6/group), which completed different consecutive SI test of anxiety. […] The time spent in active social interaction (SI-time), 1 h and 12 h food-intake were measured. […]
Statistical analysis. Data from repeated observations (food intake) were analyzed by two-way analyses of variance for repeated measures (ANOVA) (factors: “substrain” and “food intake” as repeated measure). Data obtained from simple measures such as DPIV activity or SI time were analyzed by one-way (factor: “substrain”) ANOVA. […]

## NC(N)=NCCC[C@@H](NC(=O)C(c1ccccc1)c1ccccc1)C(=O)NCc1ccc(O)cc1 [BIBP3226]
rats
  time spent in active social interaction: decreased
[1]
  anxiety-related behavior in the elevated plus-maze test: anxiogenic-like effects
  locomotor effect in the elevated plus-maze test: without any locomotor deficit
[2]; i.c.v. BIBP3226 100 nmol, P32/98 50 nmol, NPY 0.8 nmol
  effect of Y1 receptor antagonist pre-treatment on P32/98-induced potentiation of NPY anxiolysis (SI behavior): can block
[3]
  effect of Y1 R blockade on 1 h feeding effects: only partly affected

## NCCCC[C@H](N)C(=O)N1CCCC1 [Lys-pyrrolidine]
Dipeptidyl peptidase IV
  formation of Tyr-Pro in serum: blocked

## Rat neuropeptide Y1-36 [NPY, reference compound]
[2]; i.c.v. 0.8 nmol
  SI-time, NPY alone: anxiolytic-like effect
[4]
  amount of food eaten within 1 h: “u-shaped” dose-dependent feeding effect

## Ile-Pro-Ile [diprotin A]
Dipeptidyl peptidase IV
  formation of Tyr-Pro in serum: blocked
